Measured values from the supplement of paper PMC4862054.

Tests used:
Test in all cases: normalised viability (% of control), CellTiter-Blue; higher = more viable cells (about 100 = DMSO control)
Settings in all cases: incubation time: 72 h
MDA-MB-468 [1] = tested on: MDA-MB-468
Protocol: (§1)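 DSRT, CellTiter-Blue viability, 72 h incubation. Signal is normalised to DMSO and benzethonium chloride controls. Value is the normalised response at dose 3.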

HDQ-P1 [2] = tested on: HDQ-P1
Protocol: as §1

MDA-MB-231 [3] = tested on: MDA-MB-231
Protocol: as §1

CAL-148 [4] = tested on: CAL-148
Protocol: as §1

DU-4475 = tested on: DU-4475
Protocol: as §1

HCC1937 = tested on: HCC1937
Protocol: as §1

CAL-120 [5] = tested on: CAL-120
Protocol: as §1

SK-BR-3 [6] = tested on: SK-BR-3
Protocol: as §1

HCC1599 [7] = tested on: HCC1599
Protocol: as §1

MFM-223 [8] = tested on: MFM-223
Protocol: as §1

HCC1143 [9] = tested on: HCC1143
Protocol: as §1

Hs578T [10] = tested on: Hs578T
Protocol: as §1

CAL-51 = tested on: CAL-51
Protocol: as §1

MDA-MB-436 [11] = tested on: MDA-MB-436
Protocol: as §1

BT-549 = tested on: BT-549
Protocol: as §1

BT-474 = tested on: BT-474
Protocol: as §1

MDA-MB-453 = tested on: MDA-MB-453
Protocol: as §1

CAL-85-1 [12] = tested on: CAL-85-1
Protocol: as §1

MDA-MB-468 [13] = tested on: MDA-MB-468; remark: listed apart in the source
Outline: (§2)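 Each entry is normalised viability at a single listed concentration within a series. It comes from breast cancer cell lines incubated 72 h with compound in 384-well plates, then measured with CellTiter-Blue fluorescence at 560/590 nm. Every plate was normalised between vehicle (100) and a positive kill control (0).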

HDQ-P1 [14] = tested on: HDQ-P1; remark: listed apart in the source
Outline: as §2

MDA-MB-231 [15] = tested on: MDA-MB-231; remark: listed apart in the source
Outline: as §2

CAL-148 [16] = tested on: CAL-148; remark: listed apart in the source
Outline: as §2

CAL-120 [17] = tested on: CAL-120; remark: listed apart in the source
Outline: as §2

SK-BR-3 [18] = tested on: SK-BR-3; remark: listed apart in the source
Outline: as §2

HCC1599 [19] = tested on: HCC1599; remark: listed apart in the source
Outline: as §2

MFM-223 [20] = tested on: MFM-223; remark: listed apart in the source
Outline: as §2

HCC1143 [21] = tested on: HCC1143; remark: listed apart in the source
Outline: as §2

Hs578T [22] = tested on: Hs578T; remark: listed apart in the source
Outline: as §2

MDA-MB-436 [23] = tested on: MDA-MB-436; remark: listed apart in the source
Outline: as §2

CAL-85-1 [24] = tested on: CAL-85-1; remark: listed apart in the source
Outline: as §2

O=c1[nH]c(=O)n([C@H]2C[C@H](O)[C@@H](CO)O2)cc1F [Floxuridine]
Settings | normalised viability [%]
BT-474, 100 nM | 117
BT-549, 100 nM | 93.4
CAL-51, 10 nM | 91.8
CAL-85-1 [12], 10 nM | 93.1
CAL-85-1 [24], 3 nM | 90.4
CAL-85-1 [24], 30 nM | 68.8
CAL-85-1 [24], 100 nM | 62.3
CAL-120 [5], 100 nM | 66.2
CAL-120 [17], 10 nM | 94.4
CAL-120 [17], 1000 nM | 16.8
CAL-120 [17], 10000 nM | 21.1
CAL-148 [4], 10 nM | 99.8
CAL-148 [16], 3 nM | 97.6
CAL-148 [16], 30 nM | 54.4
CAL-148 [16], 100 nM | 52.8
DU-4475, 10 nM | 114
HCC1143 [9], 100 nM | 101
HCC1143 [21], 10 nM | 97.5
HCC1143 [21], 1000 nM | 91.1
HCC1143 [21], 10000 nM | 61.6
HCC1599 [7], 100 nM | 97.2
HCC1599 [19], 10 nM | 86.9
HCC1599 [19], 1000 nM | 91.8
HCC1599 [19], 10000 nM | 81.9
HCC1937, 100 nM | 84.5
HDQ-P1 [2], 10 nM | 107
HDQ-P1 [14], 3 nM | 111
HDQ-P1 [14], 30 nM | 94.8
HDQ-P1 [14], 100 nM | 80.8
Hs578T [10], 100 nM | 85.8
Hs578T [22], 10 nM | 127
Hs578T [22], 1000 nM | 58.9
Hs578T [22], 10000 nM | 38.9
MDA-MB-231 [3], 100 nM | 97.4
MDA-MB-231 [15], 10 nM | 106
MDA-MB-231 [15], 1000 nM | 58.1
MDA-MB-231 [15], 10000 nM | 47.2
MDA-MB-436 [11], 100 nM | 72.6
MDA-MB-436 [23], 10 nM | 88.9
MDA-MB-436 [23], 1000 nM | 62.5
MDA-MB-436 [23], 10000 nM | 44.2
MDA-MB-453, 10 nM | 98.5
MDA-MB-468 [1], 100 nM | 51.9
MDA-MB-468 [13], 10 nM | 95.5
MDA-MB-468 [13], 1000 nM | 43.7
MDA-MB-468 [13], 10000 nM | 30.3
MFM-223 [8], 100 nM | 92.6
MFM-223 [20], 10 nM | 97.1
MFM-223 [20], 1000 nM | 93.4
MFM-223 [20], 10000 nM | 55.1
SK-BR-3 [6], 100 nM | 53
SK-BR-3 [18], 10 nM | 94.5
SK-BR-3 [18], 1000 nM | 44.9
SK-BR-3 [18], 10000 nM | 24

COc1ncc(-c2ccc3nccc(-c4ccnnc4)c3c2)cc1NS(=O)(=O)c1ccc(F)cc1F
Settings | normalised viability [%]
BT-474, 10 nM | 64.7
BT-549, 10 nM | 95.9
CAL-51, 1 nM | 85.7
CAL-85-1 [12], 1 nM | 88.8
CAL-85-1 [24], 0.3 nM | 89.5
CAL-85-1 [24], 3 nM | 75.9
CAL-85-1 [24], 10 nM | 73.2
CAL-120 [5], 10 nM | 60.2
CAL-120 [17], 1 nM | 84.2
CAL-120 [17], 100 nM | 28.9
CAL-120 [17], 1000 nM | 16.1
CAL-148 [4], 1 nM | 111
CAL-148 [16], 0.3 nM | 88.2
CAL-148 [16], 3 nM | 96.4
CAL-148 [16], 10 nM | 85.4
DU-4475, 1 nM | 88.1
HCC1143 [9], 10 nM | 68.2
HCC1143 [21], 1 nM | 72.4
HCC1143 [21], 100 nM | 35.4
HCC1143 [21], 1000 nM | 16.5
HCC1599 [7], 10 nM | 57.1
HCC1599 [19], 1 nM | 88
HCC1599 [19], 100 nM | 34.5
HCC1599 [19], 1000 nM | 29.3
HCC1937, 10 nM | 78.5
HDQ-P1 [2], 1 nM | 97.9
HDQ-P1 [14], 0.3 nM | 95.3
HDQ-P1 [14], 3 nM | 70.5
HDQ-P1 [14], 10 nM | 51.8
Hs578T [10], 10 nM | 76.8
Hs578T [22], 1 nM | 107
Hs578T [22], 100 nM | 33.5
Hs578T [22], 1000 nM | 9.34
MDA-MB-231 [3], 10 nM | 80
MDA-MB-231 [15], 1 nM | 96.2
MDA-MB-231 [15], 100 nM | 41.2
MDA-MB-231 [15], 1000 nM | 23.7
MDA-MB-436 [11], 10 nM | 83
MDA-MB-436 [23], 1 nM | 105
MDA-MB-436 [23], 100 nM | 34.2
MDA-MB-436 [23], 1000 nM | 22.8
MDA-MB-453, 1 nM | 89.3
MDA-MB-468 [1], 10 nM | 86.2
MDA-MB-468 [13], 1 nM | 92.9
MDA-MB-468 [13], 100 nM | 34.3
MDA-MB-468 [13], 1000 nM | 7.54
MFM-223 [8], 10 nM | 53.1
MFM-223 [20], 1 nM | 99.9
MFM-223 [20], 100 nM | 21.3
MFM-223 [20], 1000 nM | 14.6
SK-BR-3 [6], 10 nM | 32.7
SK-BR-3 [18], 1 nM | 77.7
SK-BR-3 [18], 100 nM | 14.2
SK-BR-3 [18], 1000 nM | 9.4

COC1=CC(c2cc3ccccc3[nH]2)=N/C1=C\c1[nH]c(C)cc1C [Obatoclax]
Settings | normalised viability [%]
BT-474, 100 nM | 70.7
BT-549, 100 nM | 62.9
CAL-51, 10 nM | 109
CAL-85-1 [12], 10 nM | 89.4
CAL-85-1 [24], 3 nM | 81.2
CAL-85-1 [24], 30 nM | 77.7
CAL-85-1 [24], 100 nM | 79.5
CAL-120 [5], 100 nM | 25.9
CAL-120 [17], 10 nM | 75.5
CAL-120 [17], 1000 nM | 9.72
CAL-120 [17], 10000 nM | 8.54
CAL-148 [4], 10 nM | 87.7
CAL-148 [16], 3 nM | 84.7
CAL-148 [16], 30 nM | 87.9
CAL-148 [16], 100 nM | 87.2
DU-4475, 10 nM | 87.7
HCC1143 [9], 100 nM | 78
HCC1143 [21], 10 nM | 69
HCC1143 [21], 1000 nM | 47.1
HCC1143 [21], 10000 nM | 33.1
HCC1599 [7], 100 nM | 93.4
HCC1599 [19], 10 nM | 95.4
HCC1599 [19], 1000 nM | 64
HCC1599 [19], 10000 nM | 44.9
HCC1937, 100 nM | 45.9
HDQ-P1 [2], 10 nM | 90.4
HDQ-P1 [14], 3 nM | 85.3
HDQ-P1 [14], 30 nM | 94.9
HDQ-P1 [14], 100 nM | 68.8
Hs578T [10], 100 nM | 73.4
Hs578T [22], 10 nM | 96.7
Hs578T [22], 1000 nM | 27.1
Hs578T [22], 10000 nM | 22.1
MDA-MB-231 [3], 100 nM | 47.7
MDA-MB-231 [15], 10 nM | 77
MDA-MB-231 [15], 1000 nM | 11.4
MDA-MB-231 [15], 10000 nM | 3.22
MDA-MB-436 [11], 100 nM | 58.7
MDA-MB-436 [23], 10 nM | 76.7
MDA-MB-436 [23], 1000 nM | 38.2
MDA-MB-436 [23], 10000 nM | 21.5
MDA-MB-453, 10 nM | 80.6
MDA-MB-468 [1], 100 nM | 69
MDA-MB-468 [13], 10 nM | 85
MDA-MB-468 [13], 1000 nM | 29.5
MDA-MB-468 [13], 10000 nM | 31.7
MFM-223 [8], 100 nM | 71.7
MFM-223 [20], 10 nM | 72.7
MFM-223 [20], 1000 nM | 54.4
MFM-223 [20], 10000 nM | 25.6
SK-BR-3 [6], 100 nM | 43.3
SK-BR-3 [18], 10 nM | 80.2
SK-BR-3 [18], 1000 nM | 27.1
SK-BR-3 [18], 10000 nM | 21.2
